According to BigSolDB 2.1:

C[C@H]1[C@H](C)CC[C@]2(C(=O)O[C@@H]3O[C@H](CO[C@@H]4O[C@H](CO)[C@@H](O[C@@H]5O[C@@H](C)[C@H](O)[C@@H](O)[C@H]5O)[C@H](O)[C@H]4O)[C@@H](O)[C@H](O)[C@H]3O)CC[C@]3(C)C(=CC[C@@H]4[C@@]5(C)C[C@@H](O)[C@H](O)[C@@](C)(CO)[C@@H]5CC[C@]43C)[C@H]12
solubility (mole fraction)
Settings | in ethanol | in methanol | in n-butanol | in n-propanol | in water
278.15 K | – | 0.000902 | – | – | –
283.15 K | – | 0.000904 | – | – | –
288.15 K | – | 0.000973 | – | – | –
293.15 K | – | 0.00103 | – | – | –
298.15 K | 0.00014 | 0.00113 | 2.44e-05 | 5.2e-05 | 1.9e-06
303.15 K | 0.000142 | 0.00122 | 2.93e-05 | 6.06e-05 | 2.1e-06
308.15 K | 0.000146 | 0.00139 | 3.45e-05 | 6.78e-05 | 2.5e-06
313.15 K | 0.000152 | 0.0016 | 4.22e-05 | 8.06e-05 | 3.1e-06
318.15 K | 0.000165 | 0.00182 | 5.1e-05 | 9.61e-05 | 4.2e-06
323.15 K | 0.000176 | 0.00216 | 6.36e-05 | 0.000119 | 5.4e-06
328.15 K | 0.000195 | 0.00253 | 8.03e-05 | 0.000144 | 7.1e-06
333.15 K | 0.000217 | – | 0.000101 | 0.000181 | 1.02e-05
338.15 K | – | – | 0.000132 | 0.00023 | –
343.15 K | – | – | 0.000175 | 0.000304 | –
